Values quoted from earlier work as cited in US9329191B2, “Reaction-based fluorescent probe for selective detection of carbon monoxide using metal-mediated carbonylation” (THE REGENTS OF THE UNIVERSITY OF CALIFORNIA, priority 2013, dated 2016).

Settings: literature

For `NCC(=O)O.[C-]#[O+].[C-]#[O+].[C-]#[O+].[Cl][Ru]` [CORM-3, [Ru(CO)3Cl(glycinate)]], the “CORM-3 concentration shown to not alter cell viability” value is listed as “up to 500 μM”.
